Reference: ChEMBL document CHEMBL1201862, “PubChem BioAssay data set” (2004)
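48-hour exposure; five concentrations; linearly interpolated endpoints. The concentration for 50% growth inhibition is given as GI50.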 Calls of active or inactive are those of the source. No stated cut-off is given here; in the data, active = GI50 up to about 1.1 µM and inactive = higher.

Tests used:
Test in all cases: DTP human tumour cell line panel, 48 h
MDA-N = test system: MDA-N
SR = test system: SR
PC-3 = test system: PC-3
SK-MEL-5 = test system: SK-MEL-5
M14 = test system: M14
UACC-62 = test system: UACC-62
SN12C = test system: SN12C
SNB-75 = test system: SNB-75
OVCAR-4 = test system: OVCAR-4
OVCAR-8 = test system: OVCAR-8
SF-295 = test system: SF-295
EKVX = test system: EKVX
IGROV-1 = test system: IGROV-1
U-251 = test system: U-251
OVCAR-3 = test system: OVCAR-3
MDA-MB-435 = test system: MDA-MB-435
HCT-116 = test system: HCT-116
HOP-62 = test system: HOP-62
SF-268 = test system: SF-268
SF-539 = test system: SF-539
RPMI-8226 = test system: RPMI-8226
SW-620 = test system: SW-620
K562 = test system: K562
HT-29 = test system: HT-29
NCI-H522 = test system: NCI-H522
NCI-H460 = test system: NCI-H460
HOP-92 = test system: HOP-92
SK-MEL-2 = test system: SK-MEL-2
BT-549 = test system: BT-549
Hs-578T = test system: Hs-578T
MCF7 = test system: MCF7
SNB-19 = test system: SNB-19
UO-31 = test system: UO-31
ACHN = test system: ACHN
MDA-MB-231 = test system: MDA-MB-231
T47D = test system: T47D
OVCAR-5 = test system: OVCAR-5
SK-MEL-28 = test system: SK-MEL-28
NCI/ADR-RES = test system: NCI/ADR-RES
SK-OV-3 = test system: SK-OV-3
KM12 = test system: KM12
NCI-H226 = test system: NCI-H226
TK-10 = test system: TK-10
CAKI-1 = test system: CAKI-1
A498 = test system: A498
COLO 205 = test system: COLO 205
HCC 2998 = test system: HCC 2998
UACC-257 = test system: UACC-257
A549 = test system: A549
Malme-3M = test system: Malme-3M
NCI-H23 = test system: NCI-H23
DU-145 = test system: DU-145
HCT-15 = test system: HCT-15
786-0 = test system: 786-0
RXF 393 = test system: RXF 393
HL-60 = test system: HL-60
LOX IMVI = test system: LOX IMVI
CCRF-CEM = test system: CCRF-CEM
MOLT-4 = test system: MOLT-4
KM-20L2 = test system: KM-20L2

Structure (SMILES): C=CC/C(C(=O)OC)=C(/C(=O)OC)N(CCC)CCC
- GI50 (MDA-N): > 100 µM (inactive)
- GI50 (SR): 16.4 µM (inactive)
- GI50 (PC-3): > 100 µM (inactive)
- GI50 (SK-MEL-5): > 100 µM (inactive)
- GI50 (M14): > 100 µM (inactive)
- GI50 (UACC-62): > 100 µM (inactive)
- GI50 (SN12C): > 100 µM (inactive)
- GI50 (SNB-75): > 100 µM (inactive)
- GI50 (OVCAR-4): > 100 µM (inactive)
- GI50 (OVCAR-8): > 100 µM (inactive)
- GI50 (SF-295): > 100 µM (inactive)
- GI50 (EKVX): 74.3 µM (inactive)
- GI50 (IGROV-1): > 100 µM (inactive)
- GI50 (U-251): 59.4 µM (inactive)
- GI50 (OVCAR-3): 36.1 µM (inactive)
- GI50 (MDA-MB-435): > 100 µM (inactive)
- GI50 (HCT-116): 57.9 µM (inactive)
- GI50 (HOP-62): > 100 µM (inactive)
- GI50 (SF-268): > 100 µM (inactive)
- GI50 (SF-539): > 100 µM (inactive)
- GI50 (RPMI-8226): 41.9 µM (inactive)
- GI50 (SW-620): 76.7 µM (inactive)
- GI50 (K562): 35.8 µM (inactive)
- GI50 (HT-29): > 100 µM (inactive)
- GI50 (NCI-H522): 83.8 µM (inactive)
- GI50 (NCI-H460): > 100 µM (inactive)
- GI50 (HOP-92): 64 µM (inactive)
- GI50 (SK-MEL-2): > 100 µM (inactive)
- GI50 (BT-549): > 100 µM (inactive)
- GI50 (Hs-578T): > 100 µM (inactive)
- GI50 (MCF7): 63.2 µM (inactive)
- GI50 (SNB-19): > 100 µM (inactive)
- GI50 (UO-31): 94.8 µM (inactive)
- GI50 (ACHN): 86.9 µM (inactive)
- GI50 (MDA-MB-231): > 100 µM (inactive)
- GI50 (T47D): > 100 µM (inactive)
- GI50 (OVCAR-5): > 100 µM (inactive)
- GI50 (SK-MEL-28): > 100 µM (inactive)
- GI50 (NCI/ADR-RES): > 100 µM (inactive)
- GI50 (SK-OV-3): > 100 µM (inactive)
- GI50 (KM12): > 100 µM (inactive)
- GI50 (NCI-H226): > 100 µM (inactive)
- GI50 (TK-10): > 100 µM (inactive)
- GI50 (CAKI-1): > 100 µM (inactive)
- GI50 (A498): > 100 µM (inactive)
- GI50 (COLO 205): 99.5 µM (inactive)
- GI50 (HCC 2998): > 100 µM (inactive)
- GI50 (UACC-257): > 100 µM (inactive)
- GI50 (A549): > 100 µM (inactive)
- GI50 (Malme-3M): > 100 µM (inactive)
- GI50 (NCI-H23): > 100 µM (inactive)
- GI50 (DU-145): > 100 µM (inactive)
- GI50 (HCT-15): > 100 µM
- GI50 (786-0): > 100 µM (inactive)
- GI50 (RXF 393): > 100 µM (inactive)
- GI50 (HL-60): 23 µM (inactive)
- GI50 (LOX IMVI): > 100 µM (inactive)
- GI50 (CCRF-CEM): 36.1 µM (inactive)
- GI50 (MOLT-4): 61.8 µM (inactive)

Structure (SMILES): CC(=O)Oc1ccc2c(c1)c1c(=O)oc(C)nc1n2Cc1ccccc1
- GI50 (MDA-N): 27.5 µM (inactive)
- GI50 (SR): > 52.4 µM (inactive)
- GI50 (PC-3): 41.8 µM (inactive)
- GI50 (SK-MEL-5): 40 µM (inactive)
- GI50 (M14): 40.3 µM (inactive)
- GI50 (UACC-62): 16.3 µM (inactive)
- GI50 (SN12C): 66.8 µM (inactive)
- GI50 (SNB-75): > 41.8 µM (inactive)
- GI50 (OVCAR-4): > 75.7 µM (inactive)
- GI50 (OVCAR-8): 37.2 µM (inactive)
- GI50 (SF-295): 43.6 µM (inactive)
- GI50 (EKVX): > 53.5 µM (inactive)
- GI50 (IGROV-1): 51.4 µM (inactive)
- GI50 (U-251): 30.9 µM (inactive)
- GI50 (OVCAR-3): 77.6 µM (inactive)
- GI50 (MDA-MB-435): 28.3 µM (inactive)
- GI50 (HCT-116): 40.5 µM (inactive)
- GI50 (HOP-62): 32.7 µM (inactive)
- GI50 (SF-268): 17.6 µM (inactive)
- GI50 (SF-539): 27.5 µM (inactive)
- GI50 (RPMI-8226): 56.4 µM (inactive)
- GI50 (SW-620): 57.9 µM (inactive)
- GI50 (K562): 50.8 µM (inactive)
- GI50 (HT-29): > 89.3 µM (inactive)
- GI50 (NCI-H522): 12 µM (inactive)
- GI50 (NCI-H460): > 65.2 µM (inactive)
- GI50 (HOP-92): 34 µM (inactive)
- GI50 (SK-MEL-2): 19.2 µM (inactive)
- GI50 (BT-549): 17.4 µM (inactive)
- GI50 (Hs-578T): > 73.6 µM (inactive)
- GI50 (MCF7): 47.8 µM (inactive)
- GI50 (SNB-19): 69.8 µM (inactive)
- GI50 (UO-31): 2.79 µM (inactive)
- GI50 (ACHN): 28.7 µM (inactive)
- GI50 (MDA-MB-231): 33.7 µM (inactive)
- GI50 (T47D): 33.5 µM (inactive)
- GI50 (OVCAR-5): > 84.5 µM (inactive)
- GI50 (SK-MEL-28): 46.2 µM (inactive)
- GI50 (NCI/ADR-RES): 31.3 µM (inactive)
- GI50 (SK-OV-3): 28.7 µM (inactive)
- GI50 (KM12): 23.6 µM (inactive)
- GI50 (NCI-H226): 24.8 µM (inactive)
- GI50 (TK-10): 35.2 µM (inactive)
- GI50 (CAKI-1): 4.99 µM (inactive)
- GI50 (A498): 23.4 µM (inactive)
- GI50 (COLO 205): 24.6 µM (inactive)
- GI50 (HCC 2998): > 100 µM (inactive)
- GI50 (UACC-257): > 100 µM (inactive)
- GI50 (A549): 67.5 µM (inactive)
- GI50 (Malme-3M): 73.6 µM (inactive)
- GI50 (NCI-H23): > 63.5 µM (inactive)
- GI50 (DU-145): > 55.7 µM (inactive)
- GI50 (HCT-15): 26.7 µM
- GI50 (786-0): 39.6 µM (inactive)
- GI50 (RXF 393): 14.8 µM (inactive)
- GI50 (HL-60): 57.7 µM (inactive)
- GI50 (LOX IMVI): 32 µM (inactive)
- GI50 (CCRF-CEM): > 64.3 µM (inactive)
- GI50 (MOLT-4): 71.8 µM (inactive)

Structure (SMILES): COc1ccc(/C=C\c2cc(OC)c(OC)c(OC)c2)cc1O
- GI50 (EKVX): 14.7 µM (inactive)
- GI50 (IGROV-1): < 0.02 µM (active)
- GI50 (KM-20L2): 2.01 µM (inactive)
- GI50 (HT-29): 3.84 µM (inactive)
- GI50 (BT-549): 23.9 µM (inactive)
- GI50 (OVCAR-5): 5.43 µM (inactive)
- GI50 (TK-10): 56.9 µM (inactive)
- GI50 (COLO 205): 2.9 µM (inactive)
